In brackets after ≈: the same amount, converted by molar mass.
Experiments:
[1] = tested on: Mycobacterium tuberculosis; experiment: Antimycobacterial activity against multidrug (ethambutol, INH and RIF)-resistant Mycobacterium tuberculosis clinical isolate 2 assessed as inhibition of bacterial growth incubated for 7 days by rapid direct susceptibility test technique; type: functional; conditions: 168 h
[2] = Selectivity index, ratio of CC50 for CHO cells to MIC for multidrug (INH and RIF)-resistant Mycobacterium tuberculosis clinical isolate 1; type: toxicity; conditions: hamster, read-out: Selectivity Index
[3] = tested on: Mycobacterium tuberculosis; experiment: Antimycobacterial activity against multidrug (INH and RIF)-resistant Mycobacterium tuberculosis clinical isolate 1 assessed as inhibition of bacterial growth incubated for 7 days by rapid direct susceptibility test technique; type: functional; conditions: 168 h
[4] = tested on: Mycobacterium tuberculosis; experiment: Potency index, ratio of isoniazid MIC to compound MIC for multidrug (ethambutol, INH and RIF)-resistant Mycobacterium tuberculosis clinical isolate 2 incubated for 7 days by rapid direct susceptibility test technique; type: functional
[5] = tested on: Mycobacterium tuberculosis; experiment: Potency index, ratio of rifampicin MIC to compound MIC for multidrug (ethambutol, INH and RIF)-resistant Mycobacterium tuberculosis clinical isolate 2 incubated for 7 days by rapid direct susceptibility test technique; type: functional
[6] = tested on: Mycobacterium tuberculosis; experiment: Potency index, ratio of ciprofloxacin MIC to compound MIC for multidrug (INH and RIF)-resistant Mycobacterium tuberculosis clinical isolate 1 incubated for 7 days by rapid direct susceptibility test technique; type: functional
[7] = tested on: Mycobacterium tuberculosis; experiment: Potency index, ratio of isoniazid MIC to compound MIC for multidrug (INH and RIF)-resistant Mycobacterium tuberculosis clinical isolate 1 incubated for 7 days by rapid direct susceptibility test technique; type: functional
[8] = tested on: Mycobacterium tuberculosis; experiment: Potency index, ratio of rifampicin MIC to compound MIC for multidrug (INH and RIF)-resistant Mycobacterium tuberculosis clinical isolate 1 incubated for 7 days by rapid direct susceptibility test technique; type: functional
[9] = tested on: Mycobacterium tuberculosis; experiment: Potency index, ratio of ciprofloxacin MIC to compound MIC for multidrug (ethambutol, INH and RIF)-resistant Mycobacterium tuberculosis clinical isolate 2 incubated for 7 days by rapid direct susceptibility test technique; type: functional

Row | SMILES | MIC [1] | selectivity ratio [2] | MIC [3] | Ratio [4] | Ratio [5] | Ratio [6] | Ratio [7] | Ratio [8] | Ratio [9]
1 | CCOC(=O)c1c(-c2ccccc2)oc2ccc(OCCCN3C(=O)/C(=N/O)c4ccccc43)cc12 | 16 µg/mL (≈ 33 µM) | 64 | 8 µg/mL (≈ 16.5 µM) |  |  |  |  |  | 
2 | CCOC(=O)c1c(-c2ccc(F)cc2)oc2ccc(OCCCCCCN3C(=O)/C(=N/OC)c4ccccc43)cc12 | 0.25 µg/mL (≈ 0.448 µM) | 258 | 0.5 µg/mL (≈ 0.895 µM) |  |  |  |  |  | 
3 | CNC(=O)c1c(-c2ccc(O)cc2)oc2ccc(O)c(CN3CCCCC3)c12 | < 0.06 µg/mL | > 16400 | < 0.06 µg/mL |  |  |  |  |  | 
4 | CCOC(=O)c1c(-c2ccc(F)cc2)oc2ccc(OCCCN3C(=O)/C(=N/O)c4ccccc43)cc12 | 4 µg/mL (≈ 7.96 µM) | 32 | 8 µg/mL (≈ 15.9 µM) |  |  |  |  |  | 
5 | CCOC(=O)c1c(-c2ccccc2)oc2ccc(OCCCN3C(=O)C(=O)c4cc(OC)ccc43)cc12 | 16 µg/mL (≈ 32 µM) | 64 | 8 µg/mL (≈ 16 µM) |  |  |  |  |  | 
6 | CCOC(=O)c1c(-c2ccc(OC)cc2)oc2ccc(OCCCN3C(=O)C(=O)c4cc(F)ccc43)cc12 | 2 µg/mL (≈ 3.86 µM) | 32 | 2 µg/mL (≈ 3.86 µM) |  |  |  |  |  | 
7 | CCOC(=O)c1c(-c2ccc(F)cc2)oc2ccc(OCCCCCCN3C(=O)C(=O)c4cc(OC)ccc43)cc12 | 2 µg/mL (≈ 3.57 µM) | 128 | 2 µg/mL (≈ 3.57 µM) |  |  |  |  |  | 
8 | CCOC(=O)c1c(-c2ccccc2)oc2ccc(OCCCN3C(=O)/C(=N/O)c4cc(OC)ccc43)cc12 | 16 µg/mL (≈ 31.1 µM) | 32 | 16 µg/mL (≈ 31.1 µM) |  |  |  |  |  | 
9 | CCOC(=O)c1c(-c2ccc(F)cc2)oc2ccc(OCCCN3C(=O)C(=O)c4ccccc43)cc12 | 2 µg/mL (≈ 4.1 µM) | 256 | 1 µg/mL (≈ 2.05 µM) |  |  |  |  |  | 
10 | CCOC(=O)c1c(-c2ccc(F)cc2)oc2ccc(OCCCCCCN3C(=O)/C(=N\O)c4cc(OC)ccc43)cc12 | 1 µg/mL (≈ 1.74 µM) | 128 | 4 µg/mL (≈ 6.96 µM) |  |  |  |  |  | 
11 | CCOC(=O)c1c(-c2ccc(OC)cc2)oc2ccc(OCCCCCCN3C(=O)/C(=N/NC(N)=S)c4cc(F)ccc43)cc12 | 0.25 µg/mL (≈ 0.395 µM) | 1024 | 0.125 µg/mL (≈ 0.198 µM) | >=512 | >=512 | 8 - 16 | >=512 | >=512 | 8 - 16
12 | CCO/N=C1\C(=O)N(CCCCCCOc2ccc3oc(-c4ccc(F)cc4)c(C(=O)OCC)c3c2)c2ccc(OC)cc21 | 1 µg/mL (≈ 1.66 µM) | 128 | 2 µg/mL (≈ 3.32 µM) |  |  |  |  |  | 
13 | CCOC(=O)c1c(-c2ccc(F)cc2)oc2ccc(OCCN3C(=O)C(=O)c4cc(OC)ccc43)cc12 | 4 µg/mL (≈ 7.94 µM) | 64 | 8 µg/mL (≈ 15.9 µM) |  |  |  |  |  | 
14 | CCOC(=O)c1c(-c2ccccc2)oc2ccc(OCCN3C(=O)C(=O)c4cc(F)ccc43)cc12 | 2 µg/mL (≈ 4.22 µM) | 16 | 4 µg/mL (≈ 8.45 µM) |  |  |  |  |  | 
15 | CCOC(=O)c1c(-c2ccccc2)oc2ccc(OCCCCCCN3C(=O)C(=O)c4ccccc43)cc12 | 2 µg/mL (≈ 3.91 µM) | 128 | 1 µg/mL (≈ 1.95 µM) |  |  |  |  |  | 
16 | CCOC(=O)c1c(-c2ccc(OC)cc2)oc2ccc(OCCCCN3C(=O)C(=O)c4ccccc43)cc12 | 4 µg/mL (≈ 7.79 µM) | 128 | 2 µg/mL (≈ 3.89 µM) |  |  |  |  |  | 
17 | CCOC(=O)c1c(-c2ccc(OC)cc2)oc2ccc(OCCCCCN3C(=O)C(=O)c4ccccc43)cc12 | 1 µg/mL (≈ 1.9 µM) | 64 | 2 µg/mL (≈ 3.79 µM) |  |  |  |  |  | 
18 | CCOC(=O)c1c(-c2ccc(F)cc2)oc2ccc(OCCN3C(=O)C(=O)c4ccccc43)cc12 | 4 µg/mL (≈ 8.45 µM) | 32 | 4 µg/mL (≈ 8.45 µM) |  |  |  |  |  | 
19 | CCOC(=O)c1c(-c2ccccc2)oc2ccc(OCCCN3C(=O)C(=O)c4ccccc43)cc12 | 8 µg/mL (≈ 17 µM) | 63 | 4 µg/mL (≈ 8.52 µM) |  |  |  |  |  | 
20 | CCOC(=O)c1c(-c2ccc(F)cc2)oc2ccc(OCCN3C(=O)C(=O)c4cc(F)ccc43)cc12 | 2 µg/mL (≈ 4.07 µM) | 32 | 2 µg/mL (≈ 4.07 µM) |  |  |  |  |  | 
21 | NNC(=O)c1ccncc1 [ISONIAZID] | > 128 µg/mL | < 2 | > 128 µg/mL |  |  |  |  |  | 
22 | CO[C@H]1/C=C/O[C@@]2(C)Oc3c(C)c(O)c4c(O)c(c(/C=N/N5CCN(C)CC5)c(O)c4c3C2=O)NC(=O)/C(C)=C\C=C\[C@H](C)[C@H](O)[C@@H](C)[C@@H](O)[C@@H](C)[C@H](OC(C)=O)[C@@H]1C [RIFAMPIN] | > 128 µg/mL | 8 | 64 µg/mL (≈ 77.8 µM) |  |  |  |  |  | 

Source: ChEMBL document CHEMBL4311962, “Benzofuran-isatin hybrids and their in vitro anti-mycobacterial activities against multi-drug resistant Mycobacterium tuberculosis” (Eur J Med Chem, 2019)
